In patent publication US20260355212A1 (priority 2022, published 2026):
pIC50: −log10 of the molar value. Where two headings read alike, the source gives them in different places.

Experiments:
HCoV-OC43 Mpro = HCoV-OC43 Mpro (Human coronavirus OC43, UniProt P0C6X6); assay: HCoV-OC43 Mpro enzymatic inhibition assay (fluorescence); assay type: biochemical
Summary of the method: (§1)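 Fluorescence at 340/490 nm after 60 min substrate cleavage at 30 °C is the read-out. Purified E. coli-expressed protease had been pre-incubated 30 min at room temperature with 10-dose, 3-fold compound series in duplicate.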

MERS Mpro = MERS Mpro (Middle East respiratory syndrome-related coronavirus, UniProt K9N7C7); assay: biochemical; design: species or system MERS-CoV
Sequence of MERS Mpro (K9N7C7 3248-3553 limits assumed): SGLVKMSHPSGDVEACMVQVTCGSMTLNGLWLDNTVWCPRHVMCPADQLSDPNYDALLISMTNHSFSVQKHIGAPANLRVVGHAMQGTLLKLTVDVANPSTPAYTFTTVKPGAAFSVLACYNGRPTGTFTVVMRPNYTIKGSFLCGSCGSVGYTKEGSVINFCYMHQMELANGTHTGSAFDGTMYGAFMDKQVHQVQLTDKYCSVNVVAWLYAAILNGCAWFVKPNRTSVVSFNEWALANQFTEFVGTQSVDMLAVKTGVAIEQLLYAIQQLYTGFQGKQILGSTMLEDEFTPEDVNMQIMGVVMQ

HCoV-229E Mpro = HCoV-229E Mpro (Human coronavirus 229E, UniProt P0C6X1); assay: HCoV-229E Mpro enzymatic inhibition assay (fluorescence); assay type: biochemical
Sequence of HCoV-229E Mpro (P0C6X1 2966-3267 limits assumed): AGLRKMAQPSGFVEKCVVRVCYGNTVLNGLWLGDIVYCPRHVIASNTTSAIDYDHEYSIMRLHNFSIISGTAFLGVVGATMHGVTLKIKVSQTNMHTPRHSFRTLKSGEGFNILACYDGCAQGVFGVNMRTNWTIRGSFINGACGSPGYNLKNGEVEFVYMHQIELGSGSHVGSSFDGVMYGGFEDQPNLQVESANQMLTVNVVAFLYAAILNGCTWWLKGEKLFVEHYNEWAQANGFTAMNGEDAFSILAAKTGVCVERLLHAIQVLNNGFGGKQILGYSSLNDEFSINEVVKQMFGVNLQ

HCoV-NL63 Mpro = HCoV-NL63 Mpro (Human coronavirus NL63, UniProt P0C6X5); assay: HCoV-NL63 Mpro enzymatic inhibition assay (fluorescence); assay type: biochemical
Sequence of HCoV-NL63 Mpro (P0C6X5 2940-3242 limits assumed): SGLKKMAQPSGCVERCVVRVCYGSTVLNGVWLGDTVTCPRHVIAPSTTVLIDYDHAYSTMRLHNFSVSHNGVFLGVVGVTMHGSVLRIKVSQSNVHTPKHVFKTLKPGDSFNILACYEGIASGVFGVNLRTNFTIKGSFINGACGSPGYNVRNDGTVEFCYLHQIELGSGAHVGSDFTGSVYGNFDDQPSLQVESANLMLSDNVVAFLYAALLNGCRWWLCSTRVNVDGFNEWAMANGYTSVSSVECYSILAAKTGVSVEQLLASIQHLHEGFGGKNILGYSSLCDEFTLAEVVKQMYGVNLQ
Summary of the method: as §1

HCoV-HKU1 Mpro = HCoV-HKU1 Mpro (Human coronavirus HKU1, UniProt P0C6X2); assay: HCoV-HKU1 Mpro enzymatic inhibition assay (fluorescence); assay type: biochemical
Sequence of HCoV-HKU1 Mpro (P0C6X2 3335-3637 limits assumed): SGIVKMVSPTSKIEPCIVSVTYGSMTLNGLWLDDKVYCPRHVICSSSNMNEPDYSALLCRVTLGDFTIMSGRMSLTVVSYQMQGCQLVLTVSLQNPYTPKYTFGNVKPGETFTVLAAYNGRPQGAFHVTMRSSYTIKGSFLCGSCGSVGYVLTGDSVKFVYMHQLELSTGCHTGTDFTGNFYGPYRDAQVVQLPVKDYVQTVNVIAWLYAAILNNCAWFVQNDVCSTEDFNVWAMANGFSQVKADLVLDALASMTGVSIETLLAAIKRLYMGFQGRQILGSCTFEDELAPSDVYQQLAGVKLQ
Summary of the method: as §1

SARS-CoV-1 Mpro = SARS-CoV-1 Mpro (Severe acute respiratory syndrome coronavirus, UniProt P0C6X7); assay: biochemical
SARS-CoV-2 Mpro = SARS-CoV-2 Mpro (Severe acute respiratory syndrome coronavirus 2, UniProt P0DTD1); assay: SARS-CoV-2 Mpro enzymatic inhibition assay (fluorescence); assay type: biochemical
Summary of the method: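 A fluorescence readout (340 nm excitation, 490 nm emission) was taken after the substrate reaction ran 60 min at 30° C. Before substrate addition, E. coli-expressed protease and compound (3-fold dilutions, 10 doses, duplicates) sat together 30 min at room temperature. Percent inhibition was fitted by variable-slope nonlinear regression to give IC50.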

[1] = mean, 25 nM protein, 25 μM substrate, 30 min pre-incubation, 60 min at 30° C., read-out: Mpro_SARS-CoV-2 mean IC50

Sequence of HCoV-OC43 Mpro (P0C6X6 3247-3549 limits assumed): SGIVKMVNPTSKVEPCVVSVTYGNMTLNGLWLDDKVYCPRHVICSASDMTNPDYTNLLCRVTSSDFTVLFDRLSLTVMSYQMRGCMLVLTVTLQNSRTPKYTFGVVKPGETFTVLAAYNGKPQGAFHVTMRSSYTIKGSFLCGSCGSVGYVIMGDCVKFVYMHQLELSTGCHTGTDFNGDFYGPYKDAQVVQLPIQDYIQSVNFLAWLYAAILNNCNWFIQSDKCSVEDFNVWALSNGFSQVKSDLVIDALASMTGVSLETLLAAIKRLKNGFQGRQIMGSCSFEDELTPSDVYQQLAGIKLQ

Row | SMILES | pIC50 (HCoV-OC43 Mpro) | pIC50 (MERS Mpro) | pIC50 (HCoV-229E Mpro) | pIC50 (HCoV-NL63 Mpro) | pIC50 (HCoV-HKU1 Mpro) | pIC50 (SARS-CoV-1 Mpro) | pIC50 (SARS-CoV-2 Mpro) | pIC50 (SARS-CoV-2 Mpro; [1])
1 | O=C[C@H](C[C@@H]1CCNC1=O)NC(=O)[C@@H]1C[C@@H](Cc2ccccc2Cl)CN1C(=O)c1cc2ccccc2[nH]1 [Compound 109, (2S,4R)-4-(2-Chlorobenzyl)-1-(1H-indole-2-carbonyl)-N—((S)-1-oxo-3-((S)-2-oxopyrrolidin-3-yl)propan-2-yl)pyrrolidine-2-carboxamide] | 6.57 | 5.36 | 6.43 | 5.63 | 7.31 | 6.64 | 7.09 | 
2 | N#Cc1ccc2cc(C(=O)N3CC4(CC4)C[C@H]3C(=O)N[C@H](C=O)C[C@@H]3CCNC3=O)[nH]c2c1 [Compound 82, (S)-5-(6-Cyano-1H-indole-2-carbonyl)-N—((S)-1-oxo-3-((S)-2-oxopyrrolidin-3-yl)propan-2-yl)-5-azaspiro[2.4]heptane-6-carboxamide] | 7.47 | 6.75 | 7.58 | 7.52 | 7.98 | 7.46 | 7.45 | 
3 | CC1(C)[C@@H]2[C@@H](C(=O)N[C@H](C=O)C[C@@H]3CCNC3=O)N(C(=O)CC3CCCC(F)(F)C3)C[C@@H]21 (stereo partly drawn) [Compound 22, (1R,2S,5S)-3-(2-(3,3-difluorocyclohexyl)acetyl)-6,6-dimethyl-N—((S)-1-oxo-3-((S)-2-oxopyrrolidin-3-yl)propan-2-yl)-3-azabicyclo[3.1.0]hexane-2-carboxamide] | 7.55 | 6.91 | 7.61 | 7.43 | 7.98 | 7.56 | 7.80 | 
4 | O=C[C@H](C[C@@H]1CCNC1=O)NC(=O)[C@@H]1CC2(CC2)CN1C(=O)c1cc2ccccc2[nH]1 [Compound 47, (S)-5-(1H-Indole-2-carbonyl)-N—((S)-1-oxo-3-((S)-2-oxopyrrolidin-3-yl)propan-2-yl)-5-azaspiro[2.4]heptane-6-carboxamide] | 7.19 | 6.86 | 7.32 | 7.32 | 7.77 | 7.37 |  | 7.64
5 | CC1(C)[C@@H]2[C@@H](C(=O)N[C@H](C=O)C[C@@H]3CCNC3=O)N(C(=O)c3cc4ccc(Cl)c(F)c4[nH]3)C[C@@H]21 [Compound 21, (1R,2S,5S)-3-(6-chloro-7-fluoro-1H-indole-2-carbonyl)-6,6-dimethyl-N—((S)-1-oxo-3-((S)-2-oxopyrrolidin-3-yl)propan-2-yl)-3-azabicyclo[3.1.0]hexane-2-carboxamide] | 7.23 | 6.63 | 7.65 | 7.24 | 7.42 | 7.56 | 7.81 | 
6 | CC1(C)[C@@H]2[C@@H](C(=O)N[C@H](C=O)C[C@@H]3CCNC3=O)N(C(=O)CC3CCOCC3)C[C@@H]21 [Compound 86, (1R,2S,5S)-6,6-Dimethyl-N—((S)-1-oxo-3-((S)-2-oxopyrrolidin-3-yl)propan-2-yl)-3-(2-(tetrahydro-2H-pyran-4-yl)acetyl)-3-azabicyclo[3.1.0]hexane-2-carboxamide] | 7.28 | 6.50 | 7.47 | 7.10 | 7.47 | 7.16 | 7.40 | 
7 | O=C[C@H](C[C@@H]1CCNC1=O)NC(=O)[C@@H]1C[C@@H]2C[C@@H]2N1C(=O)c1cc2ccccc2[nH]1 [Compound 125, (1S,3S,5S)-2-(1H-Indole-2-carbonyl)-N—((S)-1-oxo-3-((S)-2-oxopyrrolidin-3-yl)propan-2-yl)-2-azabicyclo[3.1.0]hexane-3-carboxamide] | 6.55 | 6.04 | 6.94 | 6.66 | 6.81 | 6.16 | 6.64 | 
8 | C[C@@H](C(=O)N1C[C@H]2[C@@H]([C@H]1C(=O)N[C@H](C=O)C[C@@H]1CCNC1=O)C2(C)C)C1CCCCC1 [Compound 67, (1R,2S,5S)-3-((R)-2-Cyclohexylpropanoyl)-6,6-dimethyl-N—((S)-1-oxo-3-((S)-2-oxopyrrolidin-3-yl)propan-2-yl)-3-azabicyclo[3.1.0]hexane-2-carboxamide] | 7.48 | 6.77 | 7.56 | 7.29 | 7.97 | 7.36 | 7.56 | 
9 | O=C[C@H](C[C@@H]1CCNC1=O)NC(=O)[C@@H]1[C@H]2C[C@H]2CN1C(=O)c1cc2ccccc2[nH]1 [Compound 130, (1S,2S,5R)-3-(1H-Indole-2-carbonyl)-N—((S)-1-oxo-3-((S)-2-oxopyrrolidin-3-yl)propan-2-yl)-3-azabicyclo[3.1.0]hexane-2-carboxamide] | 6.40 | 6.08 | 6.72 | 6.89 | 7.06 | 6.08 | 6.43 | 
10 | CC1(C)[C@@H]2[C@@H](C(=O)N[C@H](C=O)C[C@@H]3CCNC3=O)N(C(=O)c3cc4ccc(F)cc4[nH]3)C[C@@H]21 [Compound 19, (1R,2S,5S)-3-(6-fluoro-1H-indole-2-carbonyl)-6,6-dimethyl-N—((S)-1-oxo-3-((S)-2-oxopyrrolidin-3-yl)propan-2-yl)-3-azabicyclo[3.1.0]hexane-2-carboxamide] | 7.30 | 6.73 | 7.56 | 7.43 | 7.74 | 7.40 | 7.81 | 
11 | O=C[C@H](C[C@@H]1CCNC1=O)NC(=O)[C@@H]1C[C@@H](C2CCCCC2)CN1C(=O)c1cc2ccccc2[nH]1 [Compound 61, (2S,4S)-4-Cyclohexyl-1-(1H-indole-2-carbonyl)-N—((S)-1-oxo-3-((S)-2-oxopyrrolidin-3-yl)propan-2-yl)pyrrolidine-2-carboxamide] | 7.41 | 6.36 | 7.36 | 6.70 | 7.90 | 6.83 |  | 7.58
12 | CC1(C)[C@@H]2[C@@H](C(=O)N[C@H](C=O)C[C@@H]3CCNC3=O)N(C(=O)c3cc4occc4[nH]3)C[C@@H]21 [Compound 78, (1R,2S,5S)-3-(4H-Furo[3,2-b]pyrrole-5-carbonyl)-6,6-dimethyl-N—((S)-1-oxo-3-((S)-2-oxopyrrolidin-3-yl)propan-2-yl)-3-azabicyclo[3.1.0]hexane-2-carboxamide] | 7.17 | 6.32 | 7.43 | 7.09 | 7.29 | 7.06 | 7.48 | 
13 | CC1(C)[C@@H]2[C@@H](C(=O)N[C@H](C=O)C[C@@H]3CCNC3=O)N(C(=O)CC3CCCCC3)C[C@@H]21 [Compound 53, (1R,2S,5S)-3-(2-cyclohexylacetyl)-6,6-dimethyl-N—((S)-1-oxo-3-((S)-2-oxopyrrolidin-3-yl)propan-2-yl)-3-azabicyclo[3.1.0]hexane-2-carboxamide] | 7.58 | 6.49 | 7.53 | 7.18 | 7.59 | 7.34 |  | 7.60
14 | CC1(C)[C@@H]2[C@@H](C(=O)N[C@H](C=O)C[C@@H]3CCNC3=O)N(C(=O)c3cc4c(F)ccc(Cl)c4[nH]3)C[C@@H]21 [Compound 49, (1R,2S,5S)-3-(7-chloro-4-fluoro-1H-indole-2-carbonyl)-6,6-dimethyl-N—((S)-1-oxo-3-((S)-2-oxopyrrolidin-3-yl)propan-2-yl)-3-azabicyclo[3.1.0]hexane-2-carboxamide] | 7.43 | 6.70 | 7.50 | 7.24 | 7.63 | 7.53 | 7.64 | 
15 | NC(=O)C(=O)[C@H](C[C@@H]1CCNC1=O)NC(=O)[C@@H]1CC2(CC2)CN1C(=O)c1cc2ccccc2[nH]1 [Compound 35, (S)—N—((S)-4-Amino-3,4-dioxo-1-((S)-2-oxopyrrolidin-3-yl)butan-2-yl)-5-(1H-indole-2-carbonyl)-5-azaspiro[2.4]heptane-6-carboxamide] | 7.19 | 6.75 | 7.43 | 7.31 | 7.94 | 7.18 | 7.69 | 
16 | CC1(C)[C@@H]2[C@@H](C(=O)N[C@H](C=O)C[C@@H]3CCNC3=O)N(C(=O)c3[nH]c4ccccc4c3-c3ccccc3)C[C@@H]21 [Compound 122, (1R,2S,5S)-6,6-Dimethyl-N—((S)-1-oxo-3-((S)-2-oxopyrrolidin-3-yl)propan-2-yl)-3-(3-phenyl-1H-indole-2-carbonyl)-3-azabicyclo[3.1.0]hexane-2-carboxamide] | 6.37 | 5.81 | 6.76 | 5.99 | 6.44 | 6.63 | 6.79 | 
